This passage reports Kb and IC50 results from patent US5693640A, “Pyridazino-indole derivatives” (Merck, Sharp & Dohme, Ltd., priority 1994, dated 1997).

SMILES strings stand for the structures.

One assay has as its system NMDA. The assay is described as follows: Cortical slice studies: responses to NMDA in rat cortical slice. Particulars: calculated from righthand shift in the NMDA concentration-response curve, read-out: apparent equilibrium constant (Kb) in response to NMDA. From the text:
(§1) The compounds useful in this invention potently and selectively block responses to NMDA and/or AMPA in a brain slice from rat cortex, and inhibit the binding of agonists and antagonists to the strychnine-insensitive site present on the NMDA receptor and/or AMPA binding to rat forebrain membranes.
The effects of compounds of use in the invention on responses to NMDA and AMPA can be assessed using the rat cortical slice as described by Wong et al., Proc. Natl. Acad. Sci. USA, 1986, 83, 7104. The apparent equilibrium constant (Kb) is calculated from the righthand shift in the NMDA or AMPA concentration-response curves produced by the compound under test.

Assay [1] addresses T1, strychnine-insensitive site present on the NMDA receptor (Rattus norvegicus, UniProt P35439).
T1 construct: strychnine-insensitive site present on the NMDA receptor of rat forebrain membranes; from tissue; host or cells: rat forebrain membranes
Kind of assay: Displacement of 3H-L-689,560 binding, rat forebrain membranes. Particulars: read-out: concentration required to displace 50% of the specific binding (IC50).
Source text: as §1
The ability of test compounds to displace ^3 H-L-689,560 (trans-2-carboxy-5,7-dichloro-4-phenylaminocarbonylamino-1,2,3,4-tetrahydroquinoline) binding to the strychnine-insensitive site present on the NMDA receptor of rat forebrain membranes can be determined by the method of Grimwood et al., Proceedings of the British Pharmacological Society, July 1991, Abstract C78.
On the technique in general: Displacement assays read how much labelled ligand stays bound in the presence of the test substance.

Regarding `O=c1[nH]n(-c2ccccc2)c(=O)c2c1[nH]c1ccccc12` [Example 1, 2-Phenylpyridazino[4,5-b]indole-1,4-dione], in the assay with NMDA, the Kb was less than 150 µM. Further, the IC50 in assay [1] is less than 50 µM.
